From US11419806B2, “Prebiotic oral care methods using a saccharide” (Colgate-Palmolive Company, priority 2013, dated 2022)

system: Actinomyces naeslundii; test: Phenotype microarray metabolic activity; assay type: cell-based; settings: A naeslundii; 24 hrs
Experimental: (§1) The extent of metabolic activity of the tested bacteria in the presence of the above-mentioned saccharides after 24 hours and 48 hours was investigated through a high throughput phenotype microarray system (PM) for microbial cells (Biolog Inc.). Each PM can contain up to 95 different biochemical compounds (e.g. saccharides) that may act as substrates for bacteria as well as one negative control, not containing the substrates. Microarray plates were used in which the different wells of each plate were pre-loaded (by the manufacturer, Biolog Inc.) with different saccharides to be tested. Each bacterial species was tested using a separate microarray plate. Thus, a single bacterial species was tested with a variety of saccharides on each particular plate. The microarrays are based on redox technology, using cell respiration as a universal reporter. Active cell respiration results in the reduction of a tetrazolium dye and in the formation of a strong color—for example, when using the tetrazolium dye “Biolog Redox Dye Mix D”, the color changes from transparent/colorless to purple when the dye is reduced. The observation of this color change indicates which of the substrates improve the metabolic activity and health of the cells.
(§2) Each bacterial species was collected from blood agar plates (incubated for 48 hours anaerobically at 37° C.) and transferred to an IF-0 Base inoculation fluid (Biolog Inc.), which is a nutritionally poor medium. The resulting cell suspension was adjusted to a transmittance of 42% (relative to the transmittance of the base inoculation fluid with no bacterial species present) at 492 nm using a BioRad SmartSpec 3000 Photometer (the adjustment being effected by adding either further inoculation fluid or further bacteria until the transmittance of 42% was achieved). A 1:5 dilution of this suspension was prepared by mixing 3 mL of the 42% transmittance cell suspension with 15 mL of an inoculation fluid (which inoculation fluid was formed by mixing 11.6 mL sterile water, 62.5 mL IF-0 base inoculation fluid and 0.9 mL of the tetrazolium dye “Biolog Redox Dye mix D”), resulting in a final cell density which was equal to 85% transmittance using a BioRad SmartSpec 3000 Photometer. For each of the saccharides tested, the microarray plate (obtained from the supplier (Biolog Inc.) with saccharides already present in the relevant wells in powder form) was directly inoculated with 100 μL/well of this 85% transmittance cell suspension.
(§3) All plates were incubated in an anaerobic atmosphere at 37° C. Color changes were measured spectrophotometrically at 492 nm (Thermo Scientific Multiskan Ascent) at 24 hrs and 48 hrs using the same plate at both time points. […] After 24 hrs and 48 hrs under continuous shaking in a Multiscan microplate reader, the optical density (OD) of the synthetic medium at 24 hours and 48 hours was measured (using the microplate reader) at a wavelength of 492 nm for each combination of bacterium/saccharide, and for each of their respective controls (i.e. which contained the particular bacterium but no saccharide).
(§4) The experiment was carried out three times for each combination of bacterium with saccharide, with each repeat being carried out on a different day (thus providing three biological replicas). The controls were also carried out three times, as above. The values shown are the average (mean) of the three single values obtained (as detailed above) for each combination of bacterium with saccharide, at 24 hrs and at 48 hrs.

SMILES | metabolic activity: OD 492 nm divided by OD of control (control = 1)
O[C@H]1[C@H](O)[C@@H](O)[C@H](O)[C@@H](O)[C@H]1O [Myo-Inositol, (1R,2R,3S,4S,5R,6S)-cyclohexane-1,2,3,4,5,6-hexol] | 3.8627

same assay, conditions: A naeslundii; 48 hrs

SMILES | metabolic activity: OD 492 nm divided by OD of control (control = 1)
O[C@H]1[C@H](O)[C@@H](O)[C@H](O)[C@@H](O)[C@H]1O [Myo-Inositol, (1R,2R,3S,4S,5R,6S)-cyclohexane-1,2,3,4,5,6-hexol] | 4.5573

system: Actinomyces viscosus; test: Phenotype microarray metabolic activity; assay type: cell-based; settings: A viscosus; 24 hrs
Experimental: as §1, §2, §3, §4

SMILES | metabolic activity: OD 492 nm divided by OD of control (control = 1)
O[C@H]1[C@H](O)[C@@H](O)[C@H](O)[C@@H](O)[C@H]1O [Myo-Inositol, (1R,2R,3S,4S,5R,6S)-cyclohexane-1,2,3,4,5,6-hexol] | 4.3733

same assay, conditions: A viscosus; 48 hrs

SMILES | metabolic activity: OD 492 nm divided by OD of control (control = 1)
O[C@H]1[C@H](O)[C@@H](O)[C@H](O)[C@@H](O)[C@H]1O [Myo-Inositol, (1R,2R,3S,4S,5R,6S)-cyclohexane-1,2,3,4,5,6-hexol] | 4.6590

system: Aggregatibacter actinomycetemcomitans; test: Phenotype microarray metabolic activity; assay type: cell-based; settings: A actinomycetemcomitans; 24 hrs
Experimental: as §1, §2, §3, §4

SMILES | metabolic activity: OD 492 nm divided by OD of control (control = 1)
O[C@H]1[C@H](O)[C@@H](O)[C@H](O)[C@@H](O)[C@H]1O [Myo-Inositol, (1R,2R,3S,4S,5R,6S)-cyclohexane-1,2,3,4,5,6-hexol] | 1.3215

same assay, conditions: A actinomycetemcomitans; 48 hrs

SMILES | metabolic activity: OD 492 nm divided by OD of control (control = 1)
O[C@H]1[C@H](O)[C@@H](O)[C@H](O)[C@@H](O)[C@H]1O [Myo-Inositol, (1R,2R,3S,4S,5R,6S)-cyclohexane-1,2,3,4,5,6-hexol] | 1.5191

system: Capnocytophaga sputigena; test: Phenotype microarray metabolic activity; assay type: cell-based; settings: C sputigena; 24 hrs
Experimental: as §1, §2, §3, §4

SMILES | metabolic activity: OD 492 nm divided by OD of control (control = 1)
O[C@H]1[C@H](O)[C@@H](O)[C@H](O)[C@@H](O)[C@H]1O [Myo-Inositol, (1R,2R,3S,4S,5R,6S)-cyclohexane-1,2,3,4,5,6-hexol] | 0.5471

same assay, conditions: C sputigena; 48 hrs

SMILES | metabolic activity: OD 492 nm divided by OD of control (control = 1)
O[C@H]1[C@H](O)[C@@H](O)[C@H](O)[C@@H](O)[C@H]1O [Myo-Inositol, (1R,2R,3S,4S,5R,6S)-cyclohexane-1,2,3,4,5,6-hexol] | 0.8107

system: Fusobacterium nucleatum; test: Phenotype microarray metabolic activity; assay type: cell-based; settings: F nucleatum; 24 hrs
Experimental: as §1, §2, §3, §4

SMILES | metabolic activity: OD 492 nm divided by OD of control (control = 1)
O[C@H]1[C@H](O)[C@@H](O)[C@H](O)[C@@H](O)[C@H]1O [Myo-Inositol, (1R,2R,3S,4S,5R,6S)-cyclohexane-1,2,3,4,5,6-hexol] | 0.9063

same assay, conditions: F nucleatum; 48 hrs

SMILES | metabolic activity: OD 492 nm divided by OD of control (control = 1)
O[C@H]1[C@H](O)[C@@H](O)[C@H](O)[C@@H](O)[C@H]1O [Myo-Inositol, (1R,2R,3S,4S,5R,6S)-cyclohexane-1,2,3,4,5,6-hexol] | 0.8999

system: Porphyromonas gingivalis; test: Phenotype microarray metabolic activity; assay type: cell-based; settings: P gingivalis; 24 hrs
Experimental: as §1, §2, §3, §4

SMILES | metabolic activity: OD 492 nm divided by OD of control (control = 1)
O[C@H]1[C@H](O)[C@@H](O)[C@H](O)[C@@H](O)[C@H]1O [Myo-Inositol, (1R,2R,3S,4S,5R,6S)-cyclohexane-1,2,3,4,5,6-hexol] | 0.8077

same assay, conditions: P gingivalis; 48 hrs

SMILES | metabolic activity: OD 492 nm divided by OD of control (control = 1)
O[C@H]1[C@H](O)[C@@H](O)[C@H](O)[C@@H](O)[C@H]1O [Myo-Inositol, (1R,2R,3S,4S,5R,6S)-cyclohexane-1,2,3,4,5,6-hexol] | 0.7871

system: Prevotella intermedia; test: Phenotype microarray metabolic activity; assay type: cell-based; settings: P intermedia; 24 hrs
Experimental: as §1, §2, §3, §4

SMILES | metabolic activity: OD 492 nm divided by OD of control (control = 1)
O[C@H]1[C@H](O)[C@@H](O)[C@H](O)[C@@H](O)[C@H]1O [Myo-Inositol, (1R,2R,3S,4S,5R,6S)-cyclohexane-1,2,3,4,5,6-hexol] | 1.0174

same assay, conditions: P intermedia; 48 hrs

SMILES | metabolic activity: OD 492 nm divided by OD of control (control = 1)
O[C@H]1[C@H](O)[C@@H](O)[C@H](O)[C@@H](O)[C@H]1O [Myo-Inositol, (1R,2R,3S,4S,5R,6S)-cyclohexane-1,2,3,4,5,6-hexol] | 1.0226

system: S sanguinis; test: Phenotype microarray metabolic activity; assay type: cell-based; settings: 24 hrs
Experimental: as §1, §2, §3, §4

SMILES | metabolic activity: OD 492 nm divided by OD of control (control = 1)
O[C@H]1[C@H](O)[C@@H](O)[C@H](O)[C@@H](O)[C@H]1O [Myo-Inositol, (1R,2R,3S,4S,5R,6S)-cyclohexane-1,2,3,4,5,6-hexol] | 0.9436
